Active and inactive are the calls of the source. The calls are words filed in the database; no cut-off is given here.
Columns and labels:
[1] = target: Beta-secretase 1 (Homo sapiens) (UniProt P56817); experiment: Inhibition of human recombinant BACE1 using M-2420 as a substrate at 3 uM […]
Acetylcholinesterase [2] = target: T1, Acetylcholinesterase (Homo sapiens, UniProt P22303); experiment: Inhibition of human recombinant AChE by Ellman's assay
[3] = target: T2, Amyloid-beta precursor protein (Homo sapiens, UniProt P05067); experiment: Inhibition of amyloid beta (1 to 42) aggregation (unknown origin) at 10 uM by thioflavin T fluorescence method
Cholinesterase [4] = target: T3, Cholinesterase (Homo sapiens, UniProt P06276)
Description: Inhibition of human recombinant BuChE by Ellman's assay

HEK293 = experiment: Cytotoxicity against HEK293 cells assessed as reduction in cell viability up to 10 uM by MTT assay; assay type: cell-based; conditions: human
[5] = target: T2, Amyloid-beta precursor protein
Description: Inhibition of amyloid beta (1 to 42) aggregation (unknown origin) by thioflavin T fluorescence method

[6] = Cytotoxicity against embryonic chicken primary telencephalon neurons at 25 to 50 uM; design: species or system Gallus gallus
Gallus gallus [7] = species on record: Gallus gallus; experiment: Reduction in amyloid beta42 secretion in embryonic chicken primary telencephalon neurons; assay type: functional
Gallus gallus [8] = species on record: Gallus gallus; experiment: Reduction in amyloid beta40 secretion in embryonic chicken primary telencephalon neurons; assay type: functional
Gallus gallus [9] = species on record: Gallus gallus; experiment: Reduction in amyloid beta38 secretion in embryonic chicken primary telencephalon neurons; assay type: functional
Homo sapiens [10] = species on record: Homo sapiens; experiment: Selectivity ratio of IC50 for human recombinant AChE to IC50 for human recombinant BuChE
Homo sapiens [11] = species on record: Homo sapiens; experiment: Selectivity ratio of IC50 for human recombinant BuChE to IC50 for human recombinant AChE
Cholinesterase [12] = target: T3, Cholinesterase; experiment: Inhibition of human recombinant BuChE hydrolyzing activity at 67 uM by Ellman's assay
Acetylcholinesterase [13] = target: T1, Acetylcholinesterase; experiment: Inhibition of human recombinant AChE at 67 uM by Ellman's assay
Cholinesterase [14] = target: T3, Cholinesterase; experiment: Inhibition of human recombinant BuChE at 67 uM by Ellman's assay

T1 sequence (P22303 whole entry): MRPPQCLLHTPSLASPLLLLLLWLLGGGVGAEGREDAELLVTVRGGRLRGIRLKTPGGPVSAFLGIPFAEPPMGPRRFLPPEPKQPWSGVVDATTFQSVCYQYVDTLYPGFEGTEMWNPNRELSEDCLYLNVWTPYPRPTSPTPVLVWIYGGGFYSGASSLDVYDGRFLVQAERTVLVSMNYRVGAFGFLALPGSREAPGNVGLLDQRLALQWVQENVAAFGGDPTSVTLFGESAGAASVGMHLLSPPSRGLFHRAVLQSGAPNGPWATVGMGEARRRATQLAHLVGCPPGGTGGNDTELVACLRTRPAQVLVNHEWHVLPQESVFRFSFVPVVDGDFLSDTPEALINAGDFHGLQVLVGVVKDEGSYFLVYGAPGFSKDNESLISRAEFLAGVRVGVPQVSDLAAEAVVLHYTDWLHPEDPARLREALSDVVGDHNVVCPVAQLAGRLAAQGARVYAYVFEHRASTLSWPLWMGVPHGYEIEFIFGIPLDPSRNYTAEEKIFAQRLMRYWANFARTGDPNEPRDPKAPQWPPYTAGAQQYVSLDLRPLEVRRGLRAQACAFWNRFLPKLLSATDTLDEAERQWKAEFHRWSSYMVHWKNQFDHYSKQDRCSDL
T2 sequence (P05067 whole entry): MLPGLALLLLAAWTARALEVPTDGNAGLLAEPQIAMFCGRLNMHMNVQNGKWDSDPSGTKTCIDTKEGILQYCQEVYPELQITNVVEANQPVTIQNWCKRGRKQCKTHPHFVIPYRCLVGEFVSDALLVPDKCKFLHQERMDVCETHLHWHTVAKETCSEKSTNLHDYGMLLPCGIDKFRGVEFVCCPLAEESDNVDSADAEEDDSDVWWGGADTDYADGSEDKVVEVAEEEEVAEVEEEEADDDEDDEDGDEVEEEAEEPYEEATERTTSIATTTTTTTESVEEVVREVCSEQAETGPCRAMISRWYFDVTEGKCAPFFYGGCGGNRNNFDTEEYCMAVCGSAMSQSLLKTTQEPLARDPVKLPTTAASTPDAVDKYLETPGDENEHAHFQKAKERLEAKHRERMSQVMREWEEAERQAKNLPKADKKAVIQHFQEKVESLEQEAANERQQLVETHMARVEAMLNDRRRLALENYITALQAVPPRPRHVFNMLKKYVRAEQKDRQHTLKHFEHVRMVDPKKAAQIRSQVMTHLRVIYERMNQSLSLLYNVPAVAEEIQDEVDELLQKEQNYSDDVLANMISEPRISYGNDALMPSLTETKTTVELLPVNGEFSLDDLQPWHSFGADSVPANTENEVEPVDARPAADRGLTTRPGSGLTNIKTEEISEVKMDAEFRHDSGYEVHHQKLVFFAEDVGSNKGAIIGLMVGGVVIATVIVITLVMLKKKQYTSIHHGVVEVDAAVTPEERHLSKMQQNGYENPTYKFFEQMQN
T3 sequence (P06276 whole entry): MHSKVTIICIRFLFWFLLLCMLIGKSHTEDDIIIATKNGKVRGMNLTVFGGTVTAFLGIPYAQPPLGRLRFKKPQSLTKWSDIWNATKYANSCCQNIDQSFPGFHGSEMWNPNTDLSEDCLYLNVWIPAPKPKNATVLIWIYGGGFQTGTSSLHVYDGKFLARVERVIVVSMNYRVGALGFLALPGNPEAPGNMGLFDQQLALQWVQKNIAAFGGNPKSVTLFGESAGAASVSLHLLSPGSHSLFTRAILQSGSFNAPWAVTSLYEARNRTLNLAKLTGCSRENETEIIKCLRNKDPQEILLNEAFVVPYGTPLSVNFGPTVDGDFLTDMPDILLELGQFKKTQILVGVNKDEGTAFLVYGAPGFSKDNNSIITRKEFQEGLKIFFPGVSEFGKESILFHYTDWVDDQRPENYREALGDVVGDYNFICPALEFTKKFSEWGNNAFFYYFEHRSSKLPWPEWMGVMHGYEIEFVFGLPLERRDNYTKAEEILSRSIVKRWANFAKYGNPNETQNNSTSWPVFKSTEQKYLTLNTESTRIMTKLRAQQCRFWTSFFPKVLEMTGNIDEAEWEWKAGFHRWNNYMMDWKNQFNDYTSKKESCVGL
Beta-secretase 1 (Homo sapiens), sequence (P56817 whole entry): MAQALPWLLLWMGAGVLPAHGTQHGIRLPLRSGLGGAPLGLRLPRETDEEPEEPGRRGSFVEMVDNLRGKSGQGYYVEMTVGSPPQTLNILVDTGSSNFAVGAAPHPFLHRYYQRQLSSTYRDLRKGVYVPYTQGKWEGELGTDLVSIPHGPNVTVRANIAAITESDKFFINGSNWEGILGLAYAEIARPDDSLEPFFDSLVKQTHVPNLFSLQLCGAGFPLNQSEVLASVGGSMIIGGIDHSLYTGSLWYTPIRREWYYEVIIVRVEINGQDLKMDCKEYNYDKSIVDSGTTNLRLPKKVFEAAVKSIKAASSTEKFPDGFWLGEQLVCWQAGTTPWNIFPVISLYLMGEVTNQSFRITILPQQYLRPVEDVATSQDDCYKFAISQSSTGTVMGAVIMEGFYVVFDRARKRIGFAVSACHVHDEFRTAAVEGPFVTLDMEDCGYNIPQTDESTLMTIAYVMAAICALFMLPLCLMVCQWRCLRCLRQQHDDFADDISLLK

SMILES | inhibition [1] [%] | IC50 (Acetylcholinesterase [2]) [µM] | inhibition [3] [%] | IC50 (Cholinesterase [4]) [µM] | Activity (HEK293) | IC50 [5] [µM] | Activity [6] | Activity (Gallus gallus [7]) | Activity (Gallus gallus [8]) | Activity (Gallus gallus [9]) | Ratio IC50 (Homo sapiens [10]) | Ratio IC50 (Homo sapiens [11]) | inhibition (Cholinesterase [12]) [%] | inhibition (Acetylcholinesterase [13]) [%] | inhibition (Cholinesterase [14]) [%]
CC(C(=O)NCCCNC1=CC(=O)C(NCCCNC(=O)C(C)c2ccc(-c3ccccc3)c(F)c2)=CC1=O)c1ccc(-c2ccccc2)c(F)c1 (stereo not drawn) | 20 | > 20 | 12.7 | 116 |  |  |  |  |  |  |  |  |  |  | 
CC(C(=O)NCCCNCCCNC1=CC(=O)C(NCCCNCCCNC(=O)C(C)c2ccc(-c3ccccc3)c(F)c2)=CC1=O)c1ccc(-c2ccccc2)c(F)c1 (racemic) | 20 |  | > 90 |  |  |  |  |  |  |  |  |  |  |  | 
C[C@H](C(=O)NCCCNCCCNC1=CC(=O)C(NCCCNCCCNC(=O)[C@@H](C)c2ccc(-c3ccccc3)c(F)c2)=CC1=O)c1ccc(-c2ccccc2)c(F)c1 | 20 | 2.89 | > 90 | 7.77 | Toxic | 4.43 |  |  |  |  |  |  |  |  | 
CC1=C(CC(=O)NCCCNCCCNC2=CC(=O)C(NCCCNCCCNC(=O)CC3=C(C)/C(=C\c4ccc([S+](C)[O-])cc4)c4ccc(F)cc43)=CC2=O)c2cc(F)ccc2/C1=C/c1ccc([S+](C)[O-])cc1 (stereo not drawn) | 20 | 9.54 | 55 | 14.7 |  | 8.18 |  |  |  |  |  |  |  |  | 
CC(C(=O)NCCCNCCCNC1=CC(=O)c2ccccc2C1=O)c1ccc(-c2ccccc2)c(F)c1 (stereo not drawn) | 20 | 107 | 76.4 | 16.4 | Non-toxic | 6.88 | Toxic | Active | Active | Active |  |  |  |  | 
CCN(CCCCCCNC1=CC(=O)C(NCCCCCCN(CC)Cc2ccccc2OC)=CC1=O)Cc1ccccc1OC [MEMOQUIN] |  |  |  |  |  | 5.93 |  |  |  |  |  |  |  |  | 
CC(C(=O)NCCCCCCNC1=CC(=O)C(NCCCCCCNC(=O)C(C)c2ccc(-c3ccccc3)c(F)c2)=CC1=O)c1ccc(-c2ccccc2)c(F)c1 (stereo not drawn) | 20 | > 20 |  | > 20 |  |  |  |  |  |  |  |  |  |  | 
O=C(Cc1ccccc1Nc1c(Cl)cccc1Cl)NCCCNCCCNC1=CC(=O)C(NCCCNCCCNC(=O)Cc2ccccc2Nc2c(Cl)cccc2Cl)=CC1=O | 20 | 15.4 | 74.9 | 0.36 | Non-toxic | 3.15 |  |  |  |  | 42.8 |  |  |  | 
CC(C)Cc1ccc(C(C)C(=O)NCCCNCCCNC2=CC(=O)C(NCCCNCCCNC(=O)C(C)c3ccc(CC(C)C)cc3)=CC2=O)cc1 (stereo not drawn) | 20 | 0.6 | 82.6 | 22.5 |  | 4.83 |  |  |  |  |  | 37.5 | 70 | 26.3 | < 10
C[C@@H](C(=O)NCCCNCCCNC1=CC(=O)C(NCCCNCCCNC(=O)[C@H](C)c2ccc(-c3ccccc3)c(F)c2)=CC1=O)c1ccc(-c2ccccc2)c(F)c1 | 20 | 27.8 | 87.2 | 9.98 | Non-toxic | 4.77 |  |  |  |  |  |  |  |  | 
COc1ccc2c(c1)c(CC(=O)NCCCNCCCNC1=CC(=O)C(NCCCNCCCNC(=O)Cc3c(C)n(C(=O)c4ccc(Cl)cc4)c4ccc(OC)cc34)=CC1=O)c(C)n2C(=O)c1ccc(Cl)cc1 | 20 | 10.3 | 80.1 | 18.7 |  | 6.11 |  |  |  |  |  |  |  |  | 

From ChEMBL document CHEMBL3085683, “Quinones bearing non-steroidal anti-inflammatory fragments as multitarget ligands for Alzheimer's disease” (Bioorg Med Chem Lett, 2013)
